SMILES strings stand for the structures.

As usually defined, the IC50 is the concentration that inhibits the measured activity by half. High values mean weaker potency in that assay, low ones greater potency in that assay.

Chain of purified human MMP-12 enzyme (P39900 106-470): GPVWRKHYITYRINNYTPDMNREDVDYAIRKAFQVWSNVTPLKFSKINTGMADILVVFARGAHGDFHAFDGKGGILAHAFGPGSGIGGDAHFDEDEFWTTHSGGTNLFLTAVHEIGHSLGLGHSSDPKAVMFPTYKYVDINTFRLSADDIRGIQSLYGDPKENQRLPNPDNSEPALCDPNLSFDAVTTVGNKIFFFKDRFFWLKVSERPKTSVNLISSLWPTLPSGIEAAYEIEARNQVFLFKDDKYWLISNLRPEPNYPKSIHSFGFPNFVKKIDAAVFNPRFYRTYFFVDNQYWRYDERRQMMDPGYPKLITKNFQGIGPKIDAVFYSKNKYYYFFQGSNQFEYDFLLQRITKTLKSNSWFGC

The assay has as its target purified human MMP-12 enzyme (Homo sapiens, UniProt P39900). Put plainly: MMP-12 FRET assay. It counts as biochemical. To be noted: substrate 20 μM, room temperature. The procedure:
Compounds according to the present teachings were tested in an MMP-12 FRET assay as follows. To each well of black polystyrene 96-well plate was added assay buffer (50 mM HEPES (pH 7.4), 100 mM NaCl, 5 mM CaCl2 and 0.005% Brij-35 (Polyoxyethyleneglycol dodecyl ether, Pierce cat#20150), purified human MMP-12 enzyme, and varied concentrations of test compounds (prepared by serial dilution of a stock solution in 100% DMSO). The plates were incubated at room temperature for 30 minutes. The enzymatic reactions were initiated by addition of a substrate, MCA-Pro-Leu-Gly-Leu-Dpa(DNP)-Ala-Arg, containing a fluorescent group (7-methoxycoumarin, MCA) and a 2,4-dinitrophenyl group (DNP), to a final concentration of 20 μM. The final DMSO concentration in the assay was 10%. The reaction was monitored for 30 minutes at room temperature and the initial rate of the cleavage reaction was determined using a fluorescence plate reader (λex: 325 nm, λem: 395 nm). Plots of the inhibitor concentration vs. the initial cleavage rate were fit to the following equation: y=Vmax*(1−(x^n/(K^n+x^n))), whereby x=inhibitor concentration, y=initial rate, Vmax=initial rate in the absence of inhibitor, n=slope factor, and K=IC50 for the inhibition curve.
`CC(C)[C@H](NS(=O)(=O)c1ccc2c(c1)oc1ccc(-c3ccncc3)cc12)C(=O)O` [Compound 16, (S)-3-methyl-2-(8-(pyridin-4-yl)dibenzo[b,d]furan-3-sulfonamido)butanoic acid] displayed an IC50 below 1.5 nM.

The compound `CC(C)[C@@H](NS(=O)(=O)c1ccc2oc3cc(-c4ccc(Cl)o4)ccc3c2c1)C(=O)O` [Compound 290, (R)-2-(7-(5-chlorofuran-2-yl)dibenzo[b,d]furan-2-sulfonamido)-3-methylbutanoic acid] gave an IC50 of 4.4 nM.

Regarding `CC(C)[C@H](NS(=O)(=O)c1ccc2c(c1)oc1ccc(-c3noc(Cc4ccccc4)n3)cc12)C(=O)O` [Compound 266, (S)-2-(8-(5-benzyl-1,2,4-oxadiazol-3-yl)dibenzo[b,d]furan-3-sulfonamido)-3-methylbutanoic acid], half-maximal inhibition (IC50) required 4 nM.

Turning to `Cc1nc(-c2ccc(-c3ccc4oc5cc(S(=O)(=O)N[C@H](C(=O)O)C(C)C)ccc5c4c3)s2)no1` [Compound 199, (S)-3-methyl-2-(8-(5-(5-methyl-1,2,4-oxadiazol-3-yl)thiophen-2-yl)dibenzo[b,d]furan-3-sulfonamido)butanoic acid], the IC50 was below 1.5 nM.

With `CC(C)[C@H](NS(=O)(=O)c1ccc2c(c1)oc1ccc(-c3ccc(Cl)s3)cc12)C(=O)O` [Compound 74, (S)-2-(8-(5-chlorothiophen-2-yl)dibenzo[b,d]furan-3-sulfonamido)-3-methylbutanoic acid], the IC50 was below 1.5 nM.

`CC(C)[C@@H](NS(=O)(=O)c1ccc2oc3cc(-c4ccco4)ccc3c2c1)C(=O)O` [Compound 98, (R)-2-(7-(furan-2-yl)dibenzo[b,d]furan-2-sulfonamido)-3-methylbutanoic acid]: the half-maximal inhibitory concentration (IC50) was below 1.5 nM.

Take `CC(C)[C@H](NS(=O)(=O)c1ccc2c(c1)sc1ccc(-c3ccsc3Cl)cc12)C(=O)O` [Compound 52, (S)-2-(8-(2-chlorothiophen-3-yl)dibenzo[b,d]thiophene-3-sulfonamido)-3-methylbutanoic acid]: the IC50 amounted to 19 nM.

As to `CC(C)[C@H](NS(=O)(=O)c1ccc2c(c1)oc1ccc(-c3ccc(Cl)nc3)cc12)C(=O)O` [Compound 64, (S)-2-(8-(6-chloropyridin-3-yl)dibenzo[b,d]furan-3-sulfonamido)-3-methylbutanoic acid], the IC50 was below 1.5 nM.

The compound `CC(C)[C@@H](NS(=O)(=O)c1ccc2oc3cc(-c4noc(C5CC5)n4)ccc3c2c1)C(=O)O` [Compound 147, (R)-2-(7-(5-cyclopropyl-1,2,4-oxadiazol-3-yl)dibenzo[b,d]furan-2-sulfonamido)-3-methylbutanoic acid] displayed an IC50 below 1.5 nM.

The compound `CC(C)[C@H](NS(=O)(=O)c1ccc2c(c1)oc1ccc(-c3ncc(Cl)s3)cc12)C(=O)O` [Compound 224, (S)-2-(8-(5-chlorothiazol-2-yl)dibenzo[b,d]furan-3-sulfonamido)-3-methylbutanoic acid] yielded an IC50 below 1.5 nM.

`CC(C)[C@H](NS(=O)(=O)c1ccc2c(c1)oc1ccc(C3=NCCN3)cc12)C(=O)O` [Compound 77, (S)-2-(8-(4,5-dihydro-1H-imidazol-2-yl)dibenzo[b,d]furan-3-sulfonamido)-3-methylbutanoic acid] came in with an IC50 of 23 nM.

Compound `CCc1sc(-c2ccc3c(c2)oc2cc(S(=O)(=O)N[C@H](C(=O)O)C(C)C)ccc23)cc1Br` [Compound 165, (S)-2-(7-(4-bromo-5-ethylthiophen-2-yl)dibenzo[b,d]furan-3-sulfonamido)-3-methylbutanoic acid] came in with an IC50 of 1.5 nM.

Turning to `Cc1nc(-c2cnc(-c3ccc4c(c3)oc3cc(S(=O)(=O)N[C@H](C(=O)O)C(C)C)ccc34)s2)no1` [Compound 228, (S)-3-methyl-2-(7-(5-(5-methyl-1,2,4-oxadiazol-3-yl)thiazol-2-yl)dibenzo[b,d]furan-3-sulfonamido)butanoic acid], the IC50 is below 1.5 nM.

Values taken from US20100227859A1, “TRICYCLIC COMPOUNDS AS MATRIX METALLOPROTEINASE INHIBITORS” (priority 2007, published 2010).
